According to patent US7173004B2, “Macrocyclic isoquinoline peptide inhibitors of hepatitis C virus” (Bristol-Myers Squibb Company, priority 2003, dated 2007):

Tested on: HCV replicon (HCV 1b-377-neo replicon cells, Huh7)
Experiment: HCV replicon cell-based FRET assay
Conditions: Hepatitis C virus, Huh-7
Description: HCV Replion assays were utilized in the present invention, and were prepared, conducted and validated as follows:
An HCV replicon whole cell system was established as described by Lohmann V, Korner F, Koch J, Herian U, Theilmann L, Bartenschlager R., Science 285(5424): 110–3 (1999). This system enabled us to evaluate the effects of our HCV Protease compounds on HCV RNA replication. Briefly, using the HCV strain 1B sequence described in the Lohmann paper (Assession number: AJ238799), an HCV cDNA was synthesized by Operon Technologies, Inc. (Alameda, Calif.), and the full-length replicon was then assembled in plasmid pGem9zf(+) (Promega, Madison, Wis.) using standard molecular biology techniques. The replicon consists of (i) the HCV 5′ UTR fused to the first 12 amino acids of the capsid protein, (ii) the neomycin phosphotransferase gene (neo), (iii) the IRES from encephalomyocarditis virus (EMCV), and (iv) HCV NS3 to NS5B genes and the HCV 3′ UTR. Plasmid DNAs were linearized with ScaI and RNA transcripts were synthesized in vitro using the T7 MegaScript transcription kit (Ambion, Austin, Tex.) according to manufacturer's directions. To generate cell lines, 4×10^6 Huh-7 cells (kindly provided by R. Bartenschlager and available from Health Science Research Resources Bank, Japan Health Sciences Foundation) were electroporated (GenePulser System, Bio-Rad) with 10 microgram(“μg”) of RNA transcript and plated into 100-mm dishes. After 24 h, selective media containing 1.0 milligrams/milliliter (“mg/ml”) G418 was added and media was changed every 3 to 5 days. Approximately 4 weeks after electroporation, small colonies were visible which were isolated and expanded for further analysis. These cell lines were maintained at 37° C., 5% CO2, 100% relative humidity in DMEM (Cat# 11965-084) Gibco-BRL, Rockville, Md., with 10% heat inactivated calf serum (Sigma), 10 ml of 100× penicillin/streptomycin (Cat# 15140-122) Gibco-BRL, Rockville, Md., Geneticin (Cat# 10131-027) Gibco-BRL, Rockville, Md. at 1 mg/ml. One of the cell lines (deposited as ATCC Accession No. PTA-4583 in the American Type Culture Collection) which had approximately 3,000 copies of HCV replicon RNA/cell was used for development of the assay (HCV 1b-377-neo replicon cells).
Huh7 cells, constitutively expressing the HCV replicon, were grown in Dulbecco's Modified Eagle Media (DMEM) containing 10% Fetal calf serum (FCS) and 1 mg/ml G418 (Gibco-BRL). Cells were seeded the night before (1.5×10^4 cells/well) in 96-well tissue-culture sterile plates. Compound and no compound controls were prepared in DMEM containing 4% FCS, 1:100 Penicillin/Streptomysin, 1:100 L-glutamine and 5% DMSO in the dilution plate (0.5% DMSO final concentration in the assay). Compound/DMSO mixes were added to the cells and incubated for 4 days at 37° C. After 4 days, cells were first assessed for cytotoxicity using alamar Blue (Trek Diagnotstic Systems) for a CC50 reading. The toxicity of compound (CC50) was determined by adding 1/10th volume of alamar Blue to the media incubating the cells. After 4 hr, the fluorescence signal from each well was read, with an excitation wavelength at 530 nm and an emission wavelength of 580 nm, using the Cytofluor Series 4000 (Perspective Biosystems). Plates were then rinsed thoroughly with Phosphate-Buffered Saline (PBS) (3 times 150 μl). The cells were lysed with 25 μl of a lysis assay reagent containing an HCV protease substrate (5× cell Luciferase cell culture lysis reagent (Promega #E153A) diluted to 1× with distilled water, NaCl added to 150 mM final, the FRET peptide diluted to 10 μM final from a 2 mM stock in 100% DMSO). The HCV protease substrate (FRET peptide; AnaSpec, Inc. cat #22991, described by Taliani et al. in Anal. Biochem. 240(2):60–67 (1996)) contains a fluorescence donor, EDANS, near one end of the peptide and an acceptor, DABCYL, near the other end. […]

Compound | EC50 [nM]
COc1ccc2c(O[C@@H]3C[C@H]4C(=O)N[C@]5(C(=O)NS(=O)(=O)C6CC6)C[C@H]5/C=C\CCCCC[C@H](NC(=O)OC(C)(C)C)C(=O)N4C3)nccc2c1 [Compound 17B, [4-Cyclopropanesulfonylaminocarbonyl-18-(6-methoxy-isoquinolin-1-yloxy)-2,15-dioxo-3,16-diaza-tricyclo[14.3.0.0^4,6]nonadec-7-en-14-yl]-carbamic acid tert-butyl ester] | < 50
COc1ccc2c(OC3CC4C(=O)NC5(C(=O)NS(=O)(=O)C6(C)CC6)CC5C=CCCCSCC(NC(=O)OC(C)C)C(=O)N4C3)nccc2c1 (centres unmarked) [Compound 41] | < 50
COc1ccc2c(OC3CC4C(=O)NC5(C(=O)NS(=O)(=O)C6CC6)CC5C=CCOCCCC(NC(=O)OC(C)C)C(=O)N4C3)nccc2c1 (centres unmarked) [Compound 31] | < 50
CC(C)(C)OC(=O)N[C@H]1CCCCC/C=C\[C@@H]2C[C@@]2(C(=O)NS(=O)(=O)C2CC2)NC(=O)[C@@H]2C[C@@H](Oc3nccc4ccccc34)CN2C1=O [Compound 4, [4-Cyclopropanesulfonylaminocarbonyl-18-(isoquinolin-1-yloxy)-2,15-dioxo-3,16-diaza-tricyclo[14.3.0.0^4,6]nonadec-7-en-14-yl]-carbamic acid tert-butyl ester] | < 50
CC1(OC(=O)NC2CCCCCC=CC3CC3(C(=O)NS(=O)(=O)C3CC3)NC(=O)C3CC(Oc4nccc5ccccc45)CN3C2=O)CC1 (centres unmarked) [Compound 59] | < 50
CC(C)(C)OC(=O)N[C@H]1CN(S(=O)(=O)c2ccccc2[N+](=O)[O-])CCC/C=C\[C@@H]2C[C@@]2(C(=O)O)NC(=O)[C@@H]2C[C@@H](Oc3nccc4ccccc34)CN2C1=O [Compound 144] | 5000 to 50000
COc1ccc2c(OC3CC4C(=O)NC5(C(=O)NS(=O)(=O)C6CC6)CC5C=CCOCCCC(NC(=O)NC(C)(C)C)C(=O)N4C3)nccc2c1 (centres unmarked) [Compound 34] | < 50
COc1ccc2c(OC3CC4C(=O)NC5(C(=O)NS(=O)(=O)C6CC6)CC5C=CCCCSCC(NC(=O)OCC(C)(C)C)C(=O)N4C3)nccc2c1 (centres unmarked) [Compound 75] | < 50
COc1ccc2c(OC3CC4C(=O)NC5(C(=O)NS(=O)(=O)C6(C)CC6)CC5C=CCOCCCC(NC(=O)NC5CCCC5)C(=O)N4C3)nccc2c1 (centres unmarked) [Compound 36] | < 50
CC(C)(C)OC(=O)N[C@H]1CCCCC/C=C\[C@@H]2C[C@@]2(C(=O)NS(=O)(=O)C2CC2)NC(=O)[C@@H]2C[C@@H](Oc3nc(-c4ccccc4)cc4ccccc34)CN2C1=O [Compound 58, [(Z)-(1S,4R,14S,18R)-4-cyclopropanesulfonylaminocarbonyl-2,15-dioxo-18-(3-phenyl-isoquinolin-1-yloxy)-3,16-diaza-tricyclo[14.3.0.0^4,6]nonadec-7-en-14-yl]-carbamic acid tert-butyl ester] | < 50
CCC1(S(=O)(=O)NC(=O)C23CC2C=CCCCCCC(NC(=O)OC(C)(C)C)C(=O)N2CC(Oc4nccc5cc(OC)ccc45)CC2C(=O)N3)CC1 (centres unmarked) [Compound 54] | < 50
COc1ccc2c(OC3CC4C(=O)NC5(C(=O)NS(=O)(=O)C6CC6)CC5C=CCCCOC(C)C(NC(=O)NC5CCCC5)C(=O)N4C3)nccc2c1 (centres unmarked) [Compound 65] | < 50
COc1ccc2c(OC3CC4C(=O)NC5(C(=O)NS(=O)(=O)C6CC6)CC5C=CCOCCCC(NC(=O)OC(C)(C)C(F)(F)F)C(=O)N4C3)nccc2c1 (centres unmarked) [Compound 39] | < 50
CCC1(S(=O)(=O)NC(=O)C23CC2C=CCOCCCC(NC(=O)OC(C)C)C(=O)N2CC(Oc4nccc5cc(OC)ccc45)CC2C(=O)N3)CC1 (centres unmarked) [Compound 37] | < 50
COc1ccc2c(OC3CC4C(=O)NC5(C(=O)NS(=O)(=O)C6(C)CC6)CC5C=CCCCOC(C)C(NC(=O)OCC(C)(C)C)C(=O)N4C3)nccc2c1 (centres unmarked) [Compound 67] | 50 to 500
CC(C)(C)OC(=O)NC1CCCCCC=CC2CC2(C(=O)NS(=O)(=O)C2CC2)NC(=O)C2CC(Oc3nc(Cl)cc4ccccc34)CN2C1=O (centres unmarked) [Compound 57] | < 50
COc1ccc2c(OC3CC4C(=O)NC5(C(=O)O)CC5C=CCCCCC(NC(=O)OC(C)(C)C)C(=O)N4C3)nccc2c1 (centres unmarked) [Compound 143] | 500 to 5000
